Calls of active or inactive are those of the source. The rule behind the calls is not given here.
Columns and labels:
[1] = biological target: 5-hydroxytryptamine receptor 7 (Homo sapiens, UniProt P34969); assay: Displacement of [3H]]-5-CT from human cloned 5-HT7R expressed in HEK293 cells; format: cell-based
[2] = biological target: T1, 5-hydroxytryptamine receptor 1A (Rattus norvegicus, UniProt P19327); assay: Displacement of [3H]-8-OH-DPAT from 5-HT1AR in rat hippocampus; format: tissue-based
T1 sequence (P19327 whole entry): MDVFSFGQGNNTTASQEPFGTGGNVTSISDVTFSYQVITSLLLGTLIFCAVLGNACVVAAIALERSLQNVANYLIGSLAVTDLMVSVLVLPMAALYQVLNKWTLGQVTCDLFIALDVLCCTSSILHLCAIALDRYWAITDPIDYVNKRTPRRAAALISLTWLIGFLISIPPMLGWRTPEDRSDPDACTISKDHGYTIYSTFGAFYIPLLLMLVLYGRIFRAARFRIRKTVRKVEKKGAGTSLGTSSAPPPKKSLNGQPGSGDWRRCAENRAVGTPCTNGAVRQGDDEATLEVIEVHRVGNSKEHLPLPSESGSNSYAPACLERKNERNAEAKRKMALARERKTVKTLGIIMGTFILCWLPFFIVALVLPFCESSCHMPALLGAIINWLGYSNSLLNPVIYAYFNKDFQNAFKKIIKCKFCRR

[3] = biological target: 5-hydroxytryptamine receptor 2A (Rattus norvegicus, UniProt P14842); assay: Displacement of [3H]-ketanserin from 5-HT2AR in rat cortex
Sequence of 5-hydroxytryptamine receptor 2A (P14842 whole entry): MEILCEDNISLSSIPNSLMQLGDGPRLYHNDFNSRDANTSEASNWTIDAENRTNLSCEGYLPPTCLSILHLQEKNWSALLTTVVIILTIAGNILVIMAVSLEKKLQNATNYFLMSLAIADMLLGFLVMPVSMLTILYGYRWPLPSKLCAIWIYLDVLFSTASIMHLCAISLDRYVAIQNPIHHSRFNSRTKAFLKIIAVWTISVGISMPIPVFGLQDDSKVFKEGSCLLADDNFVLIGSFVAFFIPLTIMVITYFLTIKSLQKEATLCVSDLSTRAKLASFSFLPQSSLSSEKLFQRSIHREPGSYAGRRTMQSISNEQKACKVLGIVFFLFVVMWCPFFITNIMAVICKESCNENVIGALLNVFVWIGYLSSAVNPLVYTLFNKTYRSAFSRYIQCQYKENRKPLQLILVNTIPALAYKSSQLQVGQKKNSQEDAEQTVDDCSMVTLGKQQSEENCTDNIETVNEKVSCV

[4] = biological target: D(2) dopamine receptor (Rattus norvegicus, UniProt P61169); assay: Displacement of [3H]-spiperone from dopamine D2 receptor in rat striatum
Sequence of D(2) dopamine receptor (P61169 whole entry): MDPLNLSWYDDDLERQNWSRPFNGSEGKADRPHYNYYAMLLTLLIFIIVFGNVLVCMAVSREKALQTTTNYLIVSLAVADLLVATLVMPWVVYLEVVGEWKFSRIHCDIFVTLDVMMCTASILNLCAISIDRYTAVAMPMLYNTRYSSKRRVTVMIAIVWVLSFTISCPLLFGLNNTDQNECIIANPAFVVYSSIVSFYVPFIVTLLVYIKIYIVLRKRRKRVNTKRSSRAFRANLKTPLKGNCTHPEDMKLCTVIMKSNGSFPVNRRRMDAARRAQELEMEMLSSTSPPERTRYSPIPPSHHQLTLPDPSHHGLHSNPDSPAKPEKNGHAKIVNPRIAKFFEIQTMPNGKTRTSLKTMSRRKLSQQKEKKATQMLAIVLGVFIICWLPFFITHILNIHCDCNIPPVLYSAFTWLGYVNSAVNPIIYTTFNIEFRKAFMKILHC

[5] = biological target: 5-hydroxytryptamine receptor 6 (Homo sapiens, UniProt P50406); assay: Displacement of [3H]LSD from human cloned 5-HT6R expressed in HEK293 cells; format: cell-based
Sequence of 5-hydroxytryptamine receptor 6 (P50406 whole entry): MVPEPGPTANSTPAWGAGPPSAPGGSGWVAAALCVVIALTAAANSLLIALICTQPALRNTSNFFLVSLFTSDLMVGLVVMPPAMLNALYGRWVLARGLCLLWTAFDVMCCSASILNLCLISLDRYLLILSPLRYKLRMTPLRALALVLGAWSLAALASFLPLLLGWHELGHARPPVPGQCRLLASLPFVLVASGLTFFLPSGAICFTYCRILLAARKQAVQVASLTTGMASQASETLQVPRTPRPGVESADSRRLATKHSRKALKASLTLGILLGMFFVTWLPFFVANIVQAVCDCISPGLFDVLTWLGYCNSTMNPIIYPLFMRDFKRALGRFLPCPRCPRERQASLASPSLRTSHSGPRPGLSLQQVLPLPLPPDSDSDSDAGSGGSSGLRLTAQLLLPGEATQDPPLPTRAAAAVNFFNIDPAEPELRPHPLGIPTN

[6] = system: Mus musculus; assay: Anxiolytic-like activity in mouse assessed as increase in number of punished crossings at 1.25 to 5 mg/kg, ip dosed 60 mins before test by four plate test; format: functional, organism-based
[7] = system: Mus musculus; assay: Induction of hypothermia in mouse assessed as change in body temperature at 5 mg/kg, ip administered 30 mins before test and measured 120 mins post dose; format: functional, organism-based; parameters: dose 5 mg/kg
[8] = system: Mus musculus; assay: Induction of hypothermia in mouse assessed as change in body temperature at 5 mg/kg, ip administered 30 mins before test and measured 60 mins post dose; format: functional, organism-based; parameters: dose 5 mg/kg
[9] = system: Mus musculus; assay: Anxiolytic-like activity in mouse assessed as increase in number of punished crossings at 2.5 mg/kg, ip dosed 60 mins before test in presence of 0.3 mg/kg, sc 5HT1A receptor antagonist WAY 100635 by four plate test; format: functional, organism-based
[10] = system: Mus musculus; assay: Induction of hypothermia in mouse assessed as change in body temperature at 5 mg/kg, ip administered 30 mins before test and measured 90 mins post dose; format: functional, organism-based; parameters: dose 5 mg/kg
[11] = system: Rattus norvegicus; assay: Induction of lower lip retraction in rat assessed as lower lip retraction scores at 5 mg/kg, ip dosed 15 mins before test; format: functional; settings: route intraperitoneal
[12] = system: Mus musculus; assay: Induction of hypothermia in mouse assessed as change in body temperature at 10 mg/kg, ip administered 30 mins before test and measured 30 mins post dose; format: functional, organism-based; parameters: dose 10 mg/kg
[13] = system: Mus musculus; assay: Induction of hypothermia in mouse assessed as change in body temperature at 10 mg/kg, ip administered 30 mins before test and measured 30 mins post dose in presence of 0.3 mg/kg, sc 5HT1A receptor antagonist WAY 100635; format: functional, organism-based
[14] = system: Mus musculus; assay: Induction of hypothermia in mouse assessed as change in body temperature at 10 mg/kg, ip administered 30 mins before test and measured 60 mins post dose; format: functional, organism-based; parameters: dose 10 mg/kg
[15] = system: Rattus norvegicus; assay: Inhibition of 8-OH-DPAT-induced lower lip retraction in rat assessed as lower lip retraction scores at 5 mg/kg, ip dosed 45 mins before 8-OH-DPAT; format: functional; settings: route intraperitoneal
[16] = system: Mus musculus; assay: Induction of hypothermia in mouse assessed as change in body temperature at 5 mg/kg, ip administered 30 mins before test and measured 30 mins post dose; format: functional, organism-based; parameters: dose 5 mg/kg
[17] = system: Mus musculus; assay: Induction of hypothermia in mouse assessed as change in body temperature at 10 mg/kg, ip administered 30 mins before test and measured 90 mins post dose; format: functional, organism-based; parameters: dose 10 mg/kg
[18] = system: Rattus norvegicus; assay: Induction of lower lip retraction in rat assessed as lower lip retraction scores at 10 mg/kg, ip dosed 15 mins before test; format: functional; settings: route intraperitoneal
[19] = system: Mus musculus; assay: Antidepressant-like activity in mouse assessed as reduction in immobility time at 1.25 to 10 mg/kg, ip dosed 60 mins before test by forced swim test; format: functional, organism-based
[20] = system: Mus musculus; assay: Induction of hypothermia in mouse assessed as change in body temperature at 10 mg/kg, ip administered 30 mins before test and measured 60 mins post dose in presence of 0.3 mg/kg, sc 5HT1A receptor antagonist WAY 100635; format: functional, organism-based
[21] = system: Mus musculus; assay: Induction of hypothermia in mouse assessed as change in body temperature at 10 mg/kg, ip administered 30 mins before test and measured 120 mins post dose; format: functional, organism-based; parameters: dose 10 mg/kg
[22] = system: Rattus norvegicus; assay: Induction of lower lip retraction in rat assessed as lower lip retraction scores at 10 mg/kg, ip dosed 45 mins after 0.3 mg/kg, sc 5HT1A receptor antagonist WAY 100635; format: functional
[23] = system: Mus musculus; assay: Effect on spontaneous locomotor activity in mouse at 2.5 mg/kg, ip; format: ADME, organism-based; parameters: dose 2.5 mg/kg, route intraperitoneal; settings: in vivo
[24] = system: Mus musculus; assay: Anxiolytic-like activity in mouse assessed as increase in number of punished crossings at 2.5 mg/kg, ip dosed 60 mins before test by four plate test; format: functional; settings: route intraperitoneal

Sequence of 5-hydroxytryptamine receptor 7 (P34969 whole entry): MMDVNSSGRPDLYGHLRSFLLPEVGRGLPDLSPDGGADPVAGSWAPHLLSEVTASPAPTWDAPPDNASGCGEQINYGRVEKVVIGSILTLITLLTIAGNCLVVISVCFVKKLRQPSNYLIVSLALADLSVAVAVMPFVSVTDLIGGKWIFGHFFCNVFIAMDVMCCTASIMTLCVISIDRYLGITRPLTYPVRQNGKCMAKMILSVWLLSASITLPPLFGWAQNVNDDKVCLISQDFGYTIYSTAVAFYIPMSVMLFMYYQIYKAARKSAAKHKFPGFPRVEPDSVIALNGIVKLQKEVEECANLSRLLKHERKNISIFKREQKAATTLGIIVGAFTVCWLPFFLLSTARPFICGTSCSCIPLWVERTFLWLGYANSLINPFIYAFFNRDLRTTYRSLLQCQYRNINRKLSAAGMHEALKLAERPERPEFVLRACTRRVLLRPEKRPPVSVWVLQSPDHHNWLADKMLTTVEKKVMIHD

Cn1c(=O)c2c(ncn2CCCCCN2CCc3ccccc3C2)n(C)c1=O
Ki [1]: 1010 nM | Ki [2]: 171 nM | Ki [3]: 16400 nM | Ki [4]: 1220 nM | Ki [5]: 9140 nM

CN1C(=O)CN=C(c2ccccc2)c2cc(Cl)ccc21
Activity [6]: Active

Cl.Cn1c(=O)c2c(ncn2CCCCCN2CCN(c3ccccc3)CC2)n(C)c1=O
deltaT [7]: 0.4 °C | deltaT [8]: 1.1 °C | Activity [9]: inactive | deltaT [10]: -0.1 °C | Activity [11]: 0.4 | deltaT [12]: -0.9 °C | deltaT [13]: -0.2 °C | deltaT [14]: -1.5 °C | Ki [1]: 346 nM | Activity [15]: 1.7 | deltaT [16]: -1.4 °C | deltaT [17]: -1.4 °C | Activity [18]: 2 | Ki [2]: 11 nM | Ki [3]: 308 nM | Activity [19]: inactive | deltaT [20]: -0.9 °C | deltaT [21]: -1.3 °C | Ki [4]: 356 nM | Activity [22]: 0.2 | Activity [23]: Non-toxic | Ki [5]: 10300 nM | Activity [24]: 50%

CCOc1nc2c(c(=O)n(C)c(=O)n2C)n1CCCCN1CCN(c2ccccc2OC)CC1
Ki [1]: 54 nM
